According to patent EP0059645A1, “Method and kit for identification of beta-lactamases” (NATIONAL RESEARCH DEVELOPMENT CORPORATION, priority 1981, dated 1982):
Marks after values point to notes of the source that are not given here.

Assays:
TEM-1 [1] = target: T1, TEM-1 (Escherichia coli, UniProt P62593); assay: 6-well visual test with nitrocefin; conditions: 3 minutes, room temperature
OXA-3 [2] = target: T2, OXA-3 (Pseudomonas aeruginosa, UniProt Q51429); assay: Competitive assay with nitrocefin (RSAI); assay type: biochemical, E. coli R57B; parameters: Normally, therefore, the beta-lactamase has to be extracted from the cells for the purpose of the present invention; endogenous in cells
K10317 = assay: Competitive assay with nitrocefin (RSAI); assay type: biochemical, K.aerog. 10317
From the text: (§1) It is convenient to express the results in terms of a Relative Substrate Affinity Index (RSAI) value.
(§2) RSAI = Concentration of competing substrate which gives 50% inhibition of ring-opening hydrolysis of the chromogenic substrate
(§3) Concentration of chromogenic substrate in the assay A high RSAI value therefore indicates a low affinity of the beta-lactamase for that competing substrate, and therefore predicts resistance of a beta-lactam competing substrate to hydrolysis by the beta-lactamase. Low RSAI values, in contrast, predict sensitivity to hydrolysis by a beta-lactamase.
(§4) Beta-lactam antibiotics which bind to the TEM-2 enzyme compete with nitrocefin in the assay. […] . This concentration of ampicillin is a direct estimate of the relative affinity of the TEM-2 enzyme for ampicillin. […] . The RSAI value was therefore 1.3.

SHV-1 [3] = target: T3, SHV-1 (Escherichia coli, UniProt P0AD63); assay: Competitive assay with nitrocefin (RSAI); assay type: biochemical, E. coli 2008E; parameters: the beta-lactamase has to be extracted from the cells for the purpose of the present invention; made in house; host or cells: E. coli 2008E (crude cell extract)
PSE-1 [4] = target: T4, PSE-1 (Pseudomonas aeruginosa, UniProt Q03170); assay: 6-well visual test with nitrocefin; conditions: 3 minutes, room temperature
PSE-4 [5] = target: T5, PSE-4 (Pseudomonas aeruginosa, UniProt P16897); assay: 6-well visual test with nitrocefin; conditions: 3 minutes, room temperature
E. cloacae = E. cloacae (Enterobacter cloacae, UniProt P05364); assay: 6-well visual test with nitrocefin; conditions: 3 minutes, room temperature
PSE-4 [6] = target: T5, PSE-4; assay: Competitive assay with nitrocefin (RSAI); assay type: biochemical, Ps.aerug. 1559E; parameters: Normally, therefore, the beta-lactamase has to be extracted from the cells for the purpose of the present invention; endogenous in cells
TEM-2 [7] = target: T6, TEM-2 (Escherichia coli, UniProt P62593, Q37K); assay: Competitive assay with nitrocefin (RSAI); assay type: biochemical, E. coli 1725E
From the text: as §1, §2, §3, §4

[8] = target: T7, Chromosomal, constitutive beta-lactamase enzyme (Enterobacter cloacae, UniProt P05364); assay: Competitive assay with nitrocefin (RSAI); assay type: biochemical, E. cloacae
T7 construct: Normally, therefore, the beta-lactamase has to be extracted from the cells for the purpose of the present invention; endogenous in cells

PSE-2 [9] = target: T8, PSE-2 (Pseudomonas aeruginosa, UniProt P14489); assay: 6-well visual test with nitrocefin; conditions: 3 minutes, room temperature
SHV-1 [10] = target: T3, SHV-1; assay: 6-well visual test with nitrocefin; conditions: 3 minutes, room temperature
PSE-1 [11] = target: T4, PSE-1; assay: Competitive assay with nitrocefin (RSAI); assay type: biochemical, Ps.aerug. 1937E; parameters: Normally, therefore, the beta-lactamase has to be extracted from the cells for the purpose of the present invention; endogenous in cells
PSE-2 [12] = target: T8, PSE-2; assay: Competitive assay with nitrocefin (RSAI); assay type: biochemical, Ps.aerug. 1973E; parameters: Normally, therefore, the beta-lactamase has to be extracted from the cells for the purpose of the present invention; endogenous in cells
OXA-1 [13] = target: T9, OXA-1 (Escherichia coli, UniProt P13661); assay: Competitive assay with nitrocefin (RSAI); assay type: biochemical, E. coli 1527E; parameters: the beta-lactamase has to be extracted from the cells for the purpose of the present invention; made in house; host or cells: E. coli 1527E according to the earlier reading (crude cell extract)
OXA-2 [14] = target: T10, OXA-2 (Escherichia coli, UniProt P0A1V9); assay: 6-well visual test with nitrocefin; conditions: 3 minutes, room temperature
OXA-1 [15] = target: T9, OXA-1; assay: 6-well visual test with nitrocefin; conditions: 3 minutes, room temperature
PSE-3 [16] = assay: Competitive assay with nitrocefin (RSAI); assay type: biochemical, Ps.aerug. 1920E
HMS-1 [17] = assay: 6-well visual test with nitrocefin; conditions: 3 minutes, room temperature
HMS-1 [18] = assay: Competitive assay with nitrocefin (RSAI); assay type: biochemical, E. coli 1946
K17 = assay: Competitive assay with nitrocefin (RSAI); assay type: biochemical, Klebsiella 17
From the text: as §1, §2, §3, §4

OXA-2 [19] = target: T10, OXA-2; assay: Competitive assay with nitrocefin (RSAI); assay type: biochemical, E. coli R46; parameters: the beta-lactamase has to be extracted from the cells for the purpose of the present invention; made in house; host or cells: E. coli carrying R46 according to the earlier reading (crude cell extract)
TEM-1 [20] = target: T1, TEM-1; assay: Competitive assay with nitrocefin (RSAI); assay type: biochemical, E. coli 2136E; parameters: the beta-lactamase has to be extracted from the cells for the purpose of the present invention; made in house; host or cells: E. coli 2136E (plasmid-bearing strain; crude cell extract)
PSE-3 [21] = assay: 6-well visual test with nitrocefin; conditions: 3 minutes, room temperature
OXA-3 [22] = target: T2, OXA-3; assay: 6-well visual test with nitrocefin; conditions: 3 minutes, room temperature
K1073 = assay: Competitive assay with nitrocefin (RSAI); assay type: biochemical, Klebsiella 1073
From the text: as §1, §2, §3, §4

[23] = target: T11, Chromosomal, induced beta-lactamase enzyme (Pseudomonas aeruginosa, UniProt P24735); assay: Competitive assay with nitrocefin (RSAI); assay type: biochemical, Ps.aerug. 1937E + ampicillin
T11 construct: Normally, therefore, the beta-lactamase has to be extracted from the cells for the purpose of the present invention; endogenous in cells; host or cells: Pseudomonas aeruginosa 1937E grown with ampicillin

[24] = target: Chromosomal, hyper-induced beta-lactamase enzyme (Escherichia coli, UniProt P00811); assay: Competitive assay with nitrocefin (RSAI); assay type: biochemical, E. coli SNU35; parameters: Normally, therefore, the beta-lactamase has to be extracted from the cells for the purpose of the present invention; endogenous in cells; host or cells: E. coli SNU 35 (artificially produced strain)
TEM-2 [25] = target: T6, TEM-2; assay: 6-well visual test with nitrocefin; conditions: 3 minutes, room temperature
Ps +AMP (Chromosomal) = Ps +AMP (Chromosomal) (Pseudomonas aeruginosa, UniProt P24735); assay: 6-well visual test with nitrocefin; conditions: 3 minutes, room temperature
[26] = well C: Cefamandole 1:1 to nitrocefin
[27] = well B: Cefotaxime 100:1 to nitrocefin
[28] = well D: Mecillinam 20:1 to nitrocefin

Row | Structure (SMILES) | RSAI (OXA-3 [2]) | RSAI (K10317) | RSAI (SHV-1 [3]) | RSAI (PSE-4 [6]) | RSAI (TEM-2 [7]) | RSAI [8] | RSAI (PSE-1 [11]) | RSAI (PSE-2 [12]) | RSAI (OXA-1 [13]) | RSAI (PSE-3 [16]) | RSAI (HMS-1 [18]) | RSAI (K17) | RSAI (OXA-2 [19]) | RSAI (TEM-1 [20]) | RSAI (K1073) | RSAI [23] | RSAI [24] | other results
1 | Cn1nnnc1SCC1=C(C(=O)O)N2C(=O)[C@@H](NC(=O)[C@H](O)c3ccccc3)[C@H]2SC1 [Cefaman-dole, Cefamandole] | 0.75 | 5 | 6.6 | 9 | 11 | 0.03 | 6.9 | 0.06 | 1.5 | 0.006 | 0.5 | 1.8 | 1.7 | 11 | 3.9 | 5 | 0.12* | Score in 6-well visual test (TEM-1 [1]; [26]): ++; Score in 6-well visual test (PSE-1 [4]; [26]): ++; Score in 6-well visual test (PSE-4 [5]; [26]): ++; Score in 6-well visual test (E. cloacae; [26]): -; Score in 6-well visual test (PSE-2 [9]; [26]): -; Score in 6-well visual test (SHV-1 [10]; [26]): ++; Score in 6-well visual test (OXA-2 [14]; [26]): +; Score in 6-well visual test (OXA-1 [15]; [26]): ++; Score in 6-well visual test (HMS-1 [17]; [26]): +; Score in 6-well visual test (PSE-3 [21]; [26]): -; Score in 6-well visual test (OXA-3 [22]; [26]): +; Score in 6-well visual test (TEM-2 [25]; [26]): ++; Score in 6-well visual test (Ps +AMP (Chromosomal); [26]): +
2 | CO/N=C(\C(=O)N[C@@H]1C(=O)N2C(C(=O)O)=C(COC(C)=O)CS[C@H]12)c1csc(N)n1 [Cefotaxime] | 15 | 320 | 400 | 50 | 600 | 0.0006 | 70 | 9.6 | 9 | 100 | 11 | 60 | 12 | 400 | 330 | 0.004 | 0.004 | Score in 6-well visual test (TEM-1 [1]; [27]): ++; Score in 6-well visual test (PSE-1 [4]; [27]): +; Score in 6-well visual test (PSE-4 [5]; [27]): +; Score in 6-well visual test (E. cloacae; [27]): -; Score in 6-well visual test (PSE-2 [9]; [27]): -; Score in 6-well visual test (SHV-1 [10]; [27]): ++; Score in 6-well visual test (OXA-2 [14]; [27]): -; Score in 6-well visual test (OXA-1 [15]; [27]): -; Score in 6-well visual test (HMS-1 [17]; [27]): -; Score in 6-well visual test (PSE-3 [21]; [27]): +; Score in 6-well visual test (OXA-3 [22]; [27]): -; Score in 6-well visual test (TEM-2 [25]; [27]): ++; Score in 6-well visual test (Ps +AMP (Chromosomal); [27]): -
3 | CC1(C)S[C@@H]2[C@H](/N=C/N3CCCCCC3)C(=O)N2[C@H]1C(=O)O [Mecil-linam, Mecillinam] | 30 | 80 | 80 | 140 | 80 | 1.3* | 66 | 450 | 400 | 15 | 2 | 260 | 100 | 90 | 102 | 68 | 0.7* | Score in 6-well visual test (TEM-1 [1]; [28]): ++; Score in 6-well visual test (PSE-1 [4]; [28]): ++; Score in 6-well visual test (PSE-4 [5]; [28]): ++; Score in 6-well visual test (E. cloacae; [28]): -; Score in 6-well visual test (PSE-2 [9]; [28]): ++; Score in 6-well visual test (SHV-1 [10]; [28]): ++; Score in 6-well visual test (OXA-2 [14]; [28]): +; Score in 6-well visual test (OXA-1 [15]; [28]): ++; Score in 6-well visual test (HMS-1 [17]; [28]): -; Score in 6-well visual test (PSE-3 [21]; [28]): +; Score in 6-well visual test (OXA-3 [22]; [28]): +; Score in 6-well visual test (TEM-2 [25]; [28]): ++; Score in 6-well visual test (Ps +AMP (Chromosomal); [28]): +
4 | CO/N=C(\C(=O)N[C@@H]1C(=O)N2C(C(=O)O)=C(CSc3nc(=O)c(=O)[nH]n3C)CS[C@H]12)c1csc(N)n1 [RO-13 9904] | 3 | 74 | 160 | 42 | 600 | 0.0003* | 14 | 0.76 | 0.9 | 36 | 14 | 4 | 10 | 400 | 116 | 38 | 0.01 | 
5 | CC1(C)S[C@@H]2[C@H](NC(=O)[C@H](C(=O)O)c3ccsc3)C(=O)N2[C@H]1C(=O)O [Ticar-cillin, ticarcillin] | 12 | 0.48 | 0.23 | 0.65 | 0.49 | 0.0008* | 0.63 | 2.4 | 0.65 | 2 | 0.175 | 0.25 | 26 | 0.035 | 0.485 | 0.0065 | 0.001 | 
